Results taken from US5288709A, “Erythromycin derivatives” (priority 1991, dated 1994).
≈ marks a conversion by molar mass, not a printed value.

What was measured:
Assay in all cases: In-vitro antimicrobial activity primary screen (agar dilution MIC)
Format in all cases: cell-based
[1] = system: Staphylococcus aureus A5177; conditions: Staphylococcus aureus, A5177, 24 h
Procedure: (§1) The antimicrobial spectra of several of the compounds of the present invention were tested as described below.
(§2) Twelve petri dishes containing successive aqueous dilutions of the test compounds, mixed with 10 mL of sterilized Brain Heart Infusion (BHI) agar (Difco 0418-01-5), were prepared. Each plate was inoculated with 1:100 (or 1:10 for slow growing strains (primarily Micrococcus and Streptococcus) dilutions of up to 32 different microorganisms, using a Steers replicator block. The inoculated plates were incubated at 35 37° C. for 20-24 hours. In addition, a control plate, using BHI agar containing no test compound, was prepared and incubated at the beginning and the end of each test.
(§3) An additional plate containing a compound having known susceptibility patterns for the organisms being tested and belonging to the same antibiotic class as the test compounds was also prepared and incubated as a further control, as well as to provide test-to test comparability.
(§4) After incubation, each plate was read. The MIC (minimum inhibitory concentration) is defined as the lowest concentration of test compound yielding no growth, a slight haze, or sparsely isolated colonies on the inoculum spot as compared to the growth control containing no test compound.

[2] = system: Pseudomonas aeruginosa BMH10; conditions: BHI agar, 20-24 h, read-out: MIC
Procedure: as §1, §2, §3, §4

Staphylococcus aureus 45 = conditions: BHI agar, 20-24 h, read-out: MIC
Procedure: as §1, §2, §3, §4

[3] = system: Staphylococcus aureus 45 RAR2; conditions: Staphylococcus aureus, 45RAR2, 24 h, BHI agar, 20-24 h
Procedure: as §1, §2, §3, §4

[4] = system: Streptococcus pyrogenes EES61; conditions: BHI agar, 20-24 h, read-out: MIC
Procedure: as §1, §2, §3, §4

[5] = system: Staphylococcus aureus NCTC 10649; conditions: NCTC10649, BHI agar, 20-24 h, read-out: MIC
Procedure: as §1, §2, §3, §4

[6] = system: Pseudomonas aeruginosa K799/61; conditions: Pseudomonas aeruginosa K799/61; BHI agar, 20-24 h; read-out: MIC
Procedure: as §1, §2, §3, §4

Escherichia coli JUHL = conditions: Escherichia coli JUHL; BHI agar, 20-24 h; read-out: MIC
Procedure: as §1, §2, §3, §4

Escherichia coli SS = conditions: Escherichia coli, 24 h, BHI agar, 20-24 h
Procedure: as §1, §2, §3, §4

[7] = system: Staphylococcus aureus ATCC 6538P; conditions: Staphylococcus aureus, ATCC6538P, 24 h, BHI agar, 20-24 h
Procedure: as §1, §2, §3, §4

[8] = system: Pseudomonas aeruginosa A5007; conditions: Pseudomonas aeruginosa A5007; BHI agar, 20-24 h; read-out: MIC
Procedure: as §1, §2, §3, §4

[9] = system: Streptococcus agalactiae CMX 508; conditions: Streptococcus agalactiae, CMX508, 24 h, BHI agar, 20-24 h
Procedure: as §1, §2, §3, §4

[10] = system: Pseudomonas aeruginosa K799/WT; conditions: Pseudomonas aeruginosa, K799/WT, 24 h, Pseudomonas aeruginosa K799/WT; BHI agar, 20-24 h
Procedure: as §1, §2, §3, §4

Escherichia coli DC-2 = conditions: DC2; Escherichia coli DC-2; BHI agar, 20-24 h; read-out: MIC
Procedure: as §1, §2, §3, §4

[11] = system: Staphylococcus epidermidis 3519; conditions: BHI agar, 20-24 h, read-out: MIC
Procedure: as §1, §2, §3, §4

[12] = system: Micrococcus luteus ATCC 9341; conditions: ATCC9341, BHI agar, 20-24 h, read-out: MIC
Procedure: as §1, §2, §3, §4

[13] = system: Staphylococcus aureus 642A; conditions: BHI agar, 20-24 h, read-out: MIC
Procedure: as §1, §2, §3, §4

[14] = system: Enterococcus faecium ATCC 8043; conditions: Enterococcus faecium, ATCC8043, 24 h
Procedure: as §1, §2, §3, §4

[15] = system: Streptococcus pyrogenes 2548 INDUC; conditions: BHI agar, 20-24 h, read-out: MIC
Procedure: as §1, §2, §3, §4

Escherichia coli H560 = conditions: Escherichia coli H560; BHI agar, 20-24 h; read-out: MIC
Procedure: as §1, §2, §3, §4

Acinetobacter SP CMX 669 = conditions: SPCMX669; Acinetobacter SP CMX 669; BHI agar, 20-24 h; read-out: MIC
Procedure: as §1, §2, §3, §4

[16] = system: Providencia stuartii CMX 640; conditions: CMX640; Providencia stuartii CMX 640; BHI agar, 20-24 h; read-out: MIC
Procedure: as §1, §2, §3, §4

Pseudomonas cepacia 2961 = conditions: Burkholderia cepacia, BHI agar, 20-24 h, read-out: MIC
Procedure: as §1, §2, §3, §4

[17] = system: Streptococcus bovis A5169; conditions: Streptococcus equinus, A5169, 24 h, BHI agar, 20-24 h
Procedure: as §1, §2, §3, §4

[18] = system: Enterobacter aerogenes ATCC 13048; conditions: Klebsiella aerogenes, ATCC13048; Enterobacter aerogenes ATCC 13048; BHI agar, 20-24 h; read-out: MIC
Procedure: as §1, §2, §3, §4

[19] = system: Micrococcus luteus ATCC 4698; conditions: Micrococcus luteus, ATCC4698, 24 h, BHI agar, 20-24 h
Procedure: as §1, §2, §3, §4

[20] = system: Staphylococcus aureus CMX 553; conditions: Staphylococcus aureus, CMX553, 24 h, BHI agar, 20-24 h, read-out: MIC
Procedure: as §1, §2
as §3, with “comparability. Erythromycin A was used for this purpose.” for “comparability.”
as §4

SMILES: CC[C@H]1OC(=O)[C@H](C)[C@@H](O[C@H]2C[C@@](C)(OC)[C@@H](NC(N)=O)[C@H](C)O2)[C@H](C)[C@@H](O[C@@H]2O[C@H](C)C[C@H](N(C)C)[C@H]2O)[C@](C)(O)C[C@@H](C)[C@@H]2O[C@@]1(C)C(=O)[C@H]2C [Example 32, (4"S,9S)-4"-[(aminocarbonyl)amino]-9-deoxo-4",11,12-trideoxy-9,12-epoxy-11-oxoerythromycin A]
- MIC [1]: > 100 µg/mL
- MIC [2]: 100 µg/mL (≈ 132 µM)
- MIC (Staphylococcus aureus 45): 0.2 µg/mL (≈ 0.264 µM)
- MIC [3]: 0.39 µg/mL (≈ 0.515 µM)
- MIC [4]: 0.02 µg/mL (≈ 0.0264 µM)
- MIC [5]: 0.1 µg/mL (≈ 0.132 µM)
- MIC [6]: 0.78 µg/mL (≈ 1.03 µM)
- MIC (Escherichia coli JUHL): 100 µg/mL (≈ 132 µM)
- MIC (Escherichia coli SS): 0.2 µg/mL (≈ 0.264 µM)
- MIC [7]: 0.1 µg/mL (≈ 0.132 µM)
- MIC [8]: > 100 µg/mL
- MIC [9]: 0.05 µg/mL (≈ 0.066 µM)
- MIC [10]: 50 µg/mL (≈ 66 µM)
- MIC (Escherichia coli DC-2): 100 µg/mL (≈ 132 µM)
- MIC [11]: 0.2 µg/mL (≈ 0.264 µM)
- MIC [12]: 0.05 µg/mL (≈ 0.066 µM)
- MIC [13]: 0.1 µg/mL (≈ 0.132 µM)
- MIC [14]: 0.2 µg/mL (≈ 0.264 µM)
- MIC [15]: 0.78 µg/mL (≈ 1.03 µM)
- MIC (Escherichia coli H560): 100 µg/mL (≈ 132 µM)
- MIC (Acinetobacter SP CMX 669): 100 µg/mL (≈ 132 µM)
- MIC [16]: > 100 µg/mL
- MIC (Pseudomonas cepacia 2961): > 100 µg/mL
- MIC [17]: 0.05 µg/mL (≈ 0.066 µM)
- MIC [18]: 100 µg/mL (≈ 132 µM)
- MIC [19]: 0.2 µg/mL (≈ 0.264 µM)
- MIC [20]: 0.2 µg/mL (≈ 0.264 µM)
